# Assay results taken from patent publication US20120282377A1, “Methods and Formulations for Inhibiting Degradation of Photosensitive Sweeteners and Sweetener Enhancers” (priority 2011, published 2012).
# Tests used:
# [1] = cited from earlier work
# [2] = Odor analysis of UV and light exposed monatin samples by 6 panelists; type: physicochemical; parameters: key to Odor analysis: (+) = no odor or minor odor; (−) = distinct or unpleasant odor; details: for Odor analysis: 30 PPM in lemon lime matrix pH 3.35, panelists 1-6
# Procedure: A survey of odor and visual analysis of the UV and light exposed samples of the monatin samples was conducted by 6 panelists. Samples for analysis were solution of monatin in a lemon lime matrix without flavor at pH 3.35 (30 PPM monatin) exposed to visible for three days or UV light for 24 hours (equivalent of four days sun exposure).
# [3] = Stability of monatin in lemon lime matrix under ultraviolet light, Atlas sun-test chamber (Example 2); type: physicochemical; details: for monatin sample degraded: four days equivalent of ultraviolet light exposure (24 hours in UV chamber)
# Procedure: (§1) High-potency sweetener monatin was evaluated for stability to sunlight exposure when formulated into a beverage packaged in PET packaging (bottle) with and without a UV barrier or in a dark-colored PET packaging. This study was designed to evaluate the stability of RR stereoisomer of monatin under normal visible light and under ultraviolet light in the Atlas sun-test chamber using normal PET bottles, PET packaging with a UV barrier and dark PET packaging. For this purpose monatin solution was made in a lemon lime carbonated beverage matrix without any flavor added.
# (§2) The RR isomer of monatin was used for the present study after satisfactory HPLC and LC-MS data analyses confirmed that this sample greater than 95% pure. A lemon lime beverage matrix without flavor was used as the matrix base. The concentration of monatin in the matrix was 30 ppm.
# (§3) Due to lack of any RR-monatin standard, its stereoisomer, SS-monatin was used for HPLC calibration curve preparation as it appears at the same retention time as RR-monatin.
# (§4) Quantitative analysis of monatin via UV detection in LC-MS was done for all the samples. The methodology employed a 12% acetonitrile (solvent A) in 50 mM ammonium formate (pH 4.0, solvent B) for 5 min followed by a linear gradient to 34% acetonitrile over 5 min; Detection: UV @278 nm].
# (§5) 1) regular PET bottles, 300 mL or 8 Oz (bottle type A). 2) PET bottles with a UV barrier, 600 mL or 16 Oz, fresh un-used bottle* (bottle type B). * It was shown that the UV barrier capacity decreased after one use in the commercially bought 20 Oz PET bottles with a UV barrier (See the UV scan data in FIG. 1). 3) dark-colored PET bottles (bottle type C). UV light source: Atlas Sun-test chamber. Under program 1 of sun-test chamber, 6 hr of exposure is equal to one day of sun-light exposure in Arizona or 400 Langley at 40° C. Control Experiment: UV irradiation by using only a lemon lime matrix (no monatin added) in regular PET bottles and running the sun-test chamber for four days equivalent exposure was carried out. The purpose of this experiment was to make sure no artifact arises from lemon lime matrix in the monatin absorption region. No new signals were identified. 13 bottles were used in the monatin-lemon-lime matrix experiments: 1 regular PET at zero time and 3 regular PET bottles; 2 PET bottles with a UV barrier bottles and 7 dark-colored PET bottles. Zero time sample protocol: 330 mL PET bottle was filled up to ⅓^rd full, flushed with nitrogen, covered with foil and then kept at 4° C. Sample aliquot protocol: 5 mL was taken out in a 20 mL opaque glass scintillation vial. Both vial and experimental bottle were flushed with nitrogen. The vial was covered with foil and kept at 4° C.
# (§6) LC-MS analysis was carried out on all the samples in the same day as their maturation. A new monatin calibration curve was made every day with the SS-monatin sample.
# For these experiments samples were kept in the Atlas sun-test chamber where each 6 hr exposure was equivalent to one day of sun exposure in Arizona (400 Langley). […] In particular, it was noted that under UV light in regular PET, monatin degrades by 70% in just one day's exposure.
# [4] = Stability of monatin in lemon lime matrix under visible light (Example 2); type: physicochemical
# Procedure: as §1, §2, §3, §4, §5, §6
# For these experiments, visible light is the normal laboratory light which was left on all the time during the experiment.
# [5] = Monatin stability in PET bottle types with or without additives, 1600 Langley UV exposure (Example 5); type: physicochemical; details: 1600 Langley (24 hour at 40° C.); for Monatin remaining after UV exposure (ppm): control 43.3 ppm
# Procedure: The stability of monatin in regular PET bottles, PET bottles with UV barrier (colorless or green) and with or without Chinese Green Tea polyphenol or α-cyclodextrin was evaluated. Each sample was irradiated with an irradiation energy of 1600 Langley exposure (24 hour exposure at 40° C. in Atlas SunTest XLS+chamber, which was equivalent to four day of sun exposure in Arizona). A control formulation was used that contained monatin at 43.3 ppm. The results were analyzed by LC-MS.
# [6] = 0 hours of exposure in UV chamber
# [7] = 6 hours of exposure in UV chamber
# [8] = 12 hours of exposure in UV chamber
# [9] = 18 hours of exposure in UV chamber
# [10] = 24 hours of exposure in UV chamber
# [11] = Green PET with UV barrier (0.12%), additives none
# [12] = PET with UV barrier, Chinese Green Tea Polyphenol TP>40 (149 ppm)
# [13] = PET with UV barrier, additives none
# [14] = PET with UV barrier, α-cyclodextrin (729 ppm)
smiles,measurement,setting,value
"NC(CC(O)(Cc1c[nH]c2ccccc12)C(=O)O)C(=O)O (centres unmarked) [Monatin, 2-amino-4-carboxy-4-hydroxy-5-(3-indolyl)-pentanoic acid]",degradation when exposed to UV light,[1],degrade to malodorous degradation products
same,Odor analysis,"[2]; Dark-colored PET bottle, UV light 24 hours",− and +
same,Odor analysis,"[2]; Dark-colored PET bottle, visible light three days",− and +
same,Odor analysis,"[2]; PET with UV barrier, UV light 24 hours",− and +
same,Odor analysis,"[2]; PET with UV barrier, visible light three days",+
same,Odor analysis,"[2]; Regular PET, UV light 24 hours",− and +
same,Odor analysis,"[2]; Regular PET, visible light three days",+
same,odor change after UV exposure,[2]; samples in the dark-colored PET bottles,no or minimal odor change
same,Conc. in mg/L RR-Monatin in Lemon Lime matrix in Normal PET Bottle (330 mL),[3]; [6],31.1 mg/L
same,Conc. in mg/L RR-Monatin in Lemon Lime matrix in UV barrier PET Bottle (600 mL),[3]; [6],31.1 mg/L
same,Conc. in mg/L RR-Monatin in Lemon Lime matrix in dark-colored PET Bottle (75 mL),[3]; [6],31.1 mg/L
same,Conc. in mg/L RR-Monatin in Lemon Lime matrix in Normal PET Bottle (330 mL),[3]; [7],9.0 mg/L
same,Conc. in mg/L RR-Monatin in Lemon Lime matrix in UV barrier PET Bottle (600 mL),[3]; [7],27.6 mg/L
same,Conc. in mg/L RR-Monatin in Lemon Lime matrix in dark-colored PET Bottle (75 mL),[3]; [7],29.2 mg/L
same,Conc. in mg/L RR-Monatin in Lemon Lime matrix in Normal PET Bottle (330 mL),[3]; [8],2.1 mg/L
same,Conc. in mg/L RR-Monatin in Lemon Lime matrix in UV barrier PET Bottle (600 mL),[3]; [8],22.4 mg/L
same,Conc. in mg/L RR-Monatin in Lemon Lime matrix in dark-colored PET Bottle (75 mL),[3]; [8],29.1 mg/L
same,Conc. in mg/L RR-Monatin in Lemon Lime matrix in Normal PET Bottle (330 mL),[3]; [9],0.3 mg/L
same,Conc. in mg/L RR-Monatin in Lemon Lime matrix in UV barrier PET Bottle (600 mL),[3]; [9],9.8 mg/L
same,Conc. in mg/L RR-Monatin in Lemon Lime matrix in dark-colored PET Bottle (75 mL),[3]; [9],29.0 mg/L
same,Conc. in mg/L RR-Monatin in Lemon Lime matrix in Normal PET Bottle (330 mL),[3]; [10],0.0 mg/L
same,Conc. in mg/L RR-Monatin in Lemon Lime matrix in UV barrier PET Bottle (600 mL),[3]; [10],3.6 mg/L
same,Conc. in mg/L RR-Monatin in Lemon Lime matrix in dark-colored PET Bottle (75 mL),[3]; [10],28.6 mg/L
same,degradation upon exposure to UV light,[3]; Regular PET bottles and PET with UV barrier bottles,did not prevent degradation of monatin
same,monatin sample degraded,[3]; UV barrier PET bottle,~90%
same,monatin degrades,"[3]; UV light, regular PET, one day's exposure",70%
same,monatin sample degraded,[3]; dark-colored PET bottle,less than 10%
same,"degradation, UV light versus visible light",[3]; lemon-lime matrix,degrade faster upon UV light exposure than upon visible light exposure
same,degradation upon exposure to UV light,[3]; monatin solution in dark-colored PET bottles,prevented most of the monatin from degrading
same,monatin sample degraded,[3]; normal PET bottle,all of the monatin sample in the normal PET bottle had degraded
same,degrades upon exposure to visible light,"[4]; lemon-lime matrix, any of the three types of bottles, visible light for up to 74 hours",less than 10%
same,Conc. in mg/L RR-Monatin in Lemon Lime matrix UV barrier PET Bottle (600 mL),[4]; visible light 0 hours,31.1 mg/L
same,Conc. in mg/L RR-Monatin in Lemon Lime matrix in Normal PET Bottle (330 mL),[4]; visible light 0 hours,31.1 mg/L
same,Conc. in mg/L RR-Monatin in Lemon Lime matrix in dark-colored PET Bottle (75 mL),[4]; visible light 0 hours,31.1 mg/L
same,Conc. in mg/L RR-Monatin in Lemon Lime matrix UV barrier PET Bottle (600 mL),[4]; visible light 5 hours,30.9 mg/L
same,Conc. in mg/L RR-Monatin in Lemon Lime matrix in Normal PET Bottle (330 mL),[4]; visible light 5 hours,31.0 mg/L
same,Conc. in mg/L RR-Monatin in Lemon Lime matrix in dark-colored PET Bottle (75 mL),[4]; visible light 5 hours,30.9 mg/L
same,Conc. in mg/L RR-Monatin in Lemon Lime matrix UV barrier PET Bottle (600 mL),[4]; visible light 8 hours,30.4 mg/L
same,Conc. in mg/L RR-Monatin in Lemon Lime matrix in Normal PET Bottle (330 mL),[4]; visible light 8 hours,30.4 mg/L
same,Conc. in mg/L RR-Monatin in Lemon Lime matrix in dark-colored PET Bottle (75 mL),[4]; visible light 8 hours,30.4 mg/L
same,Conc. in mg/L RR-Monatin in Lemon Lime matrix UV barrier PET Bottle (600 mL),[4]; visible light 26 hours,29.8 mg/L
same,Conc. in mg/L RR-Monatin in Lemon Lime matrix in Normal PET Bottle (330 mL),[4]; visible light 26 hours,29.7 mg/L
same,Conc. in mg/L RR-Monatin in Lemon Lime matrix in dark-colored PET Bottle (75 mL),[4]; visible light 26 hours,29.9 mg/L
same,Conc. in mg/L RR-Monatin in Lemon Lime matrix UV barrier PET Bottle (600 mL),[4]; visible light 31 hours,29.5 mg/L
same,Conc. in mg/L RR-Monatin in Lemon Lime matrix in Normal PET Bottle (330 mL),[4]; visible light 31 hours,29.7 mg/L
same,Conc. in mg/L RR-Monatin in Lemon Lime matrix in dark-colored PET Bottle (75 mL),[4]; visible light 31 hours,29.7 mg/L
same,Conc. in mg/L RR-Monatin in Lemon Lime matrix UV barrier PET Bottle (600 mL),[4]; visible light 49 hours,28.9 mg/L
same,Conc. in mg/L RR-Monatin in Lemon Lime matrix in Normal PET Bottle (330 mL),[4]; visible light 49 hours,29.2 mg/L
same,Conc. in mg/L RR-Monatin in Lemon Lime matrix in dark-colored PET Bottle (75 mL),[4]; visible light 49 hours,29.3 mg/L
same,Conc. in mg/L RR-Monatin in Lemon Lime matrix UV barrier PET Bottle (600 mL),[4]; visible light 56 hours,29.2 mg/L
same,Conc. in mg/L RR-Monatin in Lemon Lime matrix in Normal PET Bottle (330 mL),[4]; visible light 56 hours,29.1 mg/L
same,Conc. in mg/L RR-Monatin in Lemon Lime matrix in dark-colored PET Bottle (75 mL),[4]; visible light 56 hours,29.2 mg/L
same,Conc. in mg/L RR-Monatin in Lemon Lime matrix UV barrier PET Bottle (600 mL),[4]; visible light 74 hours,28.7 mg/L
same,Conc. in mg/L RR-Monatin in Lemon Lime matrix in Normal PET Bottle (330 mL),[4]; visible light 74 hours,28.8 mg/L
same,Conc. in mg/L RR-Monatin in Lemon Lime matrix in dark-colored PET Bottle (75 mL),[4]; visible light 74 hours,28.9 mg/L
same,Monatin remaining after UV exposure (%),[5]; [11],65.6%
same,Monatin remaining after UV exposure (ppm),[5]; [11],28.4 ppm
same,Monatin remaining after UV exposure (%),[5]; [12],77.6%
same,Monatin remaining after UV exposure (ppm),[5]; [12],33.6 ppm
same,Monatin remaining after UV exposure (%),[5]; [13],51.0%
same,Monatin remaining after UV exposure (ppm),[5]; [13],22.1 ppm
same,Monatin remaining after UV exposure (%),[5]; [14],33.3%
same,Monatin remaining after UV exposure (ppm),[5]; [14],14.4 ppm
same,Monatin remaining after UV exposure (%),"[5]; Regular PET, additives none",13.4%
same,Monatin remaining after UV exposure (ppm),"[5]; Regular PET, additives none",5.8 ppm
